Results taken from patent US9939427B2, “Method for evaluating the scent performance of perfumes or perfume mixtures” (Symrise AG, priority 2013, dated 2018).
One block for each compound: values may come before it.

Assays:
Assay type in all cases: cell-based
OR10A6 = molecular target: T1, OR10A6 (Homo sapiens, UniProt Q8NH74); assay: Ca-imaging of OR10A6-transfected HEK293 cells; parameters: key to OR10A6 responded to odorant: ▪: 18 olfactory receptors responded to 32 odorants in related with specific anosmia; settings: HEK293 cells, individual odorant 200 μM, significant response p<0.05
T1 construct: specific primers, which amplify the complete open reading frame; expressed in transfected cells; host or cells: HEK293
T1 sequence (Q8NH74 1-314): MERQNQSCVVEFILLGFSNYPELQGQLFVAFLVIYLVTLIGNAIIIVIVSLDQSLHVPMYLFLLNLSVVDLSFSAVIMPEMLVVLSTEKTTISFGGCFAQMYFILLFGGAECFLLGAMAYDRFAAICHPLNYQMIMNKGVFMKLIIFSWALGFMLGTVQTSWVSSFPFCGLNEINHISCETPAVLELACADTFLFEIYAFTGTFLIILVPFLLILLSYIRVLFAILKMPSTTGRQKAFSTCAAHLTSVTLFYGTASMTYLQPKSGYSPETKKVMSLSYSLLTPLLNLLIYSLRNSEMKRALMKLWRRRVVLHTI
Description: (§1) HEK293 cells were cultivated in Petri dishes (Ø35 mm) as previously described (Benbernou et al. 2007). We grow up HEK293 cells in culture medium containing standard DMEM with 10% heat-inactivated fetal bovine serum, 2 mM L-glutamine, 100 units/ml penicillin, and 100 units/ml streptomycin in a humidified atmosphere (37° C., 5% CO2). After 2-3 days, the transfection process was carried out, whereby the cell culture was 70-80% confluent. The calciumphosphate method was applied to transfect DNA plasmid transiently in HEK293 cells in case of Ca-imaging method.
(§2) Calcium cations and phosphate anions created crystal precipitations coupled with DNA which could invade into the cells through endocytosis. Cells were transiently transfected with plasmid DNA which consists of pCI expression vector and PCR-amplified full-length cDNA of olfactory receptors candidates, and also Gα15, RTP1, Myr-Ric8A, HSC70, and m-Cherry as cofactors. The precipitation could be created after 15-20 min, with dropping the transfection solution on HEK293 cells. Before measuring by Ca-imaging cells were incubated 48-60 hours at 370 C, 5% CO2. Cationic liposome-mediated transfection method was applied to transfect DNA plasmid transiently in HANA3A cells in case of CRE-Luciferase and CRE-SEAP assays.
(§3) Calcium imaging of the transfected HEK293 cells was done by using chambers determinate an inverted microscope (Olympus; IX70) using a 10× objective (CPIanFL N Olympus). Fluorescence emission was determined every 4 s by using a CCD camera (Charge Coupled Device, C9100 Hamamatsu). The capillary tube which was responsible to supply odorants was generated closely above the cells. The columns filled with odorants, DMSO and ATP. Odorants were manually monitored to drop each 4-5 s to transfected cells. Solutions with drop wise form spread on HEK293 cells in 35 mm dishes.
(§4) In experiments, Fura-2 Acetoxymethylester (Fura-2/AM) was applied. The non-polar Fura2/AM is fluorescent but not yet calcium-sensitive. Once diffuses into cell plasma, Fura-2/AM is hydrolyzed to Fura-2 which is calcium-sensitive and functions as Ca2+ chelator. Regardless of the presence of calcium, Fura-2 emits at the wavelength of 510 nm. Once Fura-2 binds to free intracellular Ca2+ in cell plasma, its ratio of excitation at wavelengths of 340 nm and 380 nm is changed and correlated to the amount of intracellular Ca2+. According to this feature, the analysis of 340/380 nm excitation ratio for Fura-2 allows to quantify intracellular calcium levels.
(§5) In preparation for Ca-imaging measurements, transfected HEK293 cells were added 3 it Fura2/AM (3 μM) and incubated 30-45 min at 370 C, 5% CO2. After this step, experiments were carried out in a dark condition (Fura-2 is light-sensitive). After the incubation, medium of cell culture was replaced with 2 ml Ringer's solution.
(§6) Odorants were freshly prepared with DMSO as 1 M stocks solutions. Six mixtures (200 μM each chemical) were applied to cells sequentially (20 s each mixture/30 s Ringer). Those ORs tested with single odorants that had generated a response to odorant mixture group previously. Odorants were prepared in 100-200 μM concentration.
Ringer's solution was used for washing cells between measuring by two different odorants. Positive response was determined by the timing of the response, the strength of the response (more than twofold higher than the noise amplitude of the baseline), and the shape of the response curve (sharp rise in curve with gradual recovery). […]

[1] = tested on: HEK293 cells transfected with all cofactors and pCI plasmids without ORs; assay: Ca-imaging of control HEK293 cells without OR; settings: odorant 200 μM, three times of measuring (Table 4, FIG. 5)
Description: as §1, §2, §3, §4, §5, §6
(§7) Ringer's solution was used for washing cells between measuring by two different odorants. Positive response was determined by the timing of the response, the strength of the response (more than twofold higher than the noise amplitude of the baseline), and the shape of the response curve (sharp rise in curve with gradual recovery). The typical shape of response curves was established by observing responses to repeated stimulation with 200 μM of odorants. After testing with single odorants at 100 μM, stimulating odorants were often retested at 200 μM concentrations. To confirm the result of every receptor that produced a significant response curves, the experiment was repeated for twelve times. Finally, cells were exposed to ATP (0.25 mM) which could activate P2Y receptor channel and induce Ca2+ influx into cells. […]

OR2L8 = molecular target: T2, OR2L8 (Homo sapiens, UniProt Q8NGY9); assay: Ca-imaging of OR2L8-transfected HEK293 cells; parameters: key to OR2L8 responded to odorant: ▪: 18 olfactory receptors responded to 32 odorants in related with specific anosmia
T2 construct: specific primers, which amplify the complete open reading frame; expressed in transfected cells; host or cells: HEK293
T2 sequence (Q8NGY9 1-312): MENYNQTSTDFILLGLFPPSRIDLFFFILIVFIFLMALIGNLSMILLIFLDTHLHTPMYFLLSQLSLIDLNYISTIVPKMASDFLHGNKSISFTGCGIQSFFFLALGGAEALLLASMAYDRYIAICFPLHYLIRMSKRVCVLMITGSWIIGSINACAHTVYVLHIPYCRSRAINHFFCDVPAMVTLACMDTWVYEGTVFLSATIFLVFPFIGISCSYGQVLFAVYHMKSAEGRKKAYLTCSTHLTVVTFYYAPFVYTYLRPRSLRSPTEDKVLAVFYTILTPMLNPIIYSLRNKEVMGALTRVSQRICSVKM
Description: as §1, §2, §3, §4, §5, §6, §7

OR1B1 = molecular target: T3, OR1B1 (Homo sapiens, UniProt Q8NGR6); assay: Ca-imaging of OR1B1-transfected HEK293 cells; parameters: key to OR1B1 responded to odorant: ▪: 18 olfactory receptors responded to 32 odorants in related with specific anosmia; settings: for OR1B1 responded to odorant / Response of OR1B1 to odorant, in words: Ca-imaging; for OR1B1 responded to odorant: HEK293 cells, individual odorant 200 μM, significant response p<0.05; for Response of OR1B1 to odorant, in words: single odorants 200 μM; for Number of cell responses, Experiment (OR1B1): odorant 200 μM, approximately 2000 transfected cells in three times of measuring (Table 4, FIG. 5)
T3 construct: specific primers, which amplify the complete open reading frame; expressed in transfected cells; host or cells: HEK293
T3 sequence (Q8NGR6 1-317): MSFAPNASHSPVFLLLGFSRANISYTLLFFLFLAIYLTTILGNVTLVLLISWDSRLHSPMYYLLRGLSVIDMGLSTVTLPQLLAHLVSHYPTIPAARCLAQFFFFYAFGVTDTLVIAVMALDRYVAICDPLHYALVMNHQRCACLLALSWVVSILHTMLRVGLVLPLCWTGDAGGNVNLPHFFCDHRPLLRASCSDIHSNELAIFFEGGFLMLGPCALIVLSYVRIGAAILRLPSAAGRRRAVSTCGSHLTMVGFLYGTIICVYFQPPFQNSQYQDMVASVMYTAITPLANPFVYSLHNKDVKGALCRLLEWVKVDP
Description: as §1, §2, §3, §4, §5, §6, §7

OR4X2 = molecular target: T4, OR4X2 (Homo sapiens, UniProt Q8NGF9); assay: Ca-imaging of OR4X2-transfected HEK293 cells; parameters: key to OR4X2 responded to odorant: ▪: 18 olfactory receptors responded to 32 odorants in related with specific anosmia; settings: for Response of OR4X2 to odorant, in words: single odorants 200 μM; for Number of cell responses, Experiment (OR4X2): odorant 200 μM, approximately 2000 transfected cells in three times of measuring (Table 4, FIG. 5)
T4 construct: specific primers, which amplify the complete open reading frame; expressed in transfected cells; host or cells: HEK293
T4 sequence (Q8NGF9 1-303): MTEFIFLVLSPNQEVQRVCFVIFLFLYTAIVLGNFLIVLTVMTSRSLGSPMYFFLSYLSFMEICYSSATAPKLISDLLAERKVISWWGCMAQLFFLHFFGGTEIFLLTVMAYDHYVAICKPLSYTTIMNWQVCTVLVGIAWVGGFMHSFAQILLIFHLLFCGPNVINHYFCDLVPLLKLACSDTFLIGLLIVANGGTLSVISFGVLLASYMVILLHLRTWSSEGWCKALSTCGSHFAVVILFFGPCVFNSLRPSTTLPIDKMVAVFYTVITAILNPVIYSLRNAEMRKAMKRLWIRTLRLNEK
Description: as §1, §2, §3, §4, §5, §6, §7

OR8B4 = molecular target: T5, OR8B4 (Homo sapiens, UniProt Q96RC9); assay: Ca-imaging of OR8B4-transfected HEK293 cells; parameters: key to OR8B4 responded to odorant: ▪: 18 olfactory receptors responded to 32 odorants in related with specific anosmia
T5 construct: specific primers, which amplify the complete open reading frame; expressed in transfected cells; host or cells: HEK293
T5 sequence (Q96RC9 1-309): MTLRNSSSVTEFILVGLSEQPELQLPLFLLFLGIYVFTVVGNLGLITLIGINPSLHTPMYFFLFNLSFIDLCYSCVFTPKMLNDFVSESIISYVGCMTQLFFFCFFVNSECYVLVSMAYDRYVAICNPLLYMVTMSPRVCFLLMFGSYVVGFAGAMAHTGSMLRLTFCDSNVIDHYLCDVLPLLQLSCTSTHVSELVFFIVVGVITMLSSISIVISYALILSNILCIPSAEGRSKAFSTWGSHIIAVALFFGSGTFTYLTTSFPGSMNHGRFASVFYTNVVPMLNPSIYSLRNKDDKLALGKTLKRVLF
Description: as §1, §2, §3, §4, §5, §6, §7

[2] = Ca-imaging, HEK293 cells, individual odorant 200 μM, significant response p<0.05
[3] = Ca-imaging, single odorants 200 μM

Compound: CCCC(O)CCC1C(C)CCCC1(C)C (stereo not shown) [Timbrol, Timberol]
Number of cell responses, Control [1]: 1 | OR2L8 responded to odorant (OR2L8; [2]): ▪ | Response of OR2L8 to odorant, in words (OR2L8; [3]): Ca2+ concentration increased | Number of cell responses, Experiment (OR2L8) (OR2L8; odorant 200 μM, approximately 2000 transfected cells in three times of measuring (Table 4, FIG. 5)): 10

Compound: NCC(=O)c1ccccc1 [2-aminoacetophenon, 2-Aminoacetophenone]
OR4X2 responded to odorant (OR4X2; [2]): ▪ | Response of OR4X2 to odorant, in words (OR4X2; Ca-imaging): could be the receptor | Response of OR4X2 to odorant, in words (OR4X2; Ca-imaging, listed as 2-aminoacetophenone): responded | Number of cell responses, Experiment (OR4X2) (OR4X2): 20

Now from value to compound, other results behind:

OR10A6 responded to odorant (OR10A6): ▪
Compound: OC/C=C/c1ccccc1 [Cinamyl alcohol, Cinamylalcohol]

OR1B1 responded to odorant (OR1B1): ▪ | Response of OR1B1 to odorant, in words (OR1B1): significantly (P<0.05) activated
Compound: Cc1ccc2c(c1)OCC(=O)CO2 [calone, Calone]
Number of cell responses, Control [1]: 0

OR1B1 responded to odorant (OR1B1): ▪ | Response of OR1B1 to odorant, in words (OR1B1): significantly (P<0.05) activated | Number of cell responses, Experiment (OR1B1) (OR1B1; listed as 3-Hydroxy-2-methyl-4-pyranone): 35 | Number of cell responses, Experiment (OR1B1) (OR1B1; listed as 3-hydroxy-2-methyl-4-pyrane): 9
Compound: Cc1occc(=O)c1O [3-Hydroxy-2-Methyl-4-Pyran, 3-Hydroxy-2-Methyl-4-Pyran-4-one]
Number of cell responses, Control [1]: 5

OR8B4 responded to odorant (OR8B4; [2]): ▪ | Response of OR8B4 to odorant, in words (OR8B4; [3]): responded significantly | Number of cell responses (OR8B4) (OR8B4; odorant 200 μM, approximately 2000 transfected cells in three times of measuring (FIG. 5)): 8 | Number of cell responses, Experiment (OR4X2) (OR4X2): 8
Compound: CCCCCC=O [Aldehyde C6, Aldehyd C6]
Number of cell responses, Control [1]: 0
